# Reference: US20090118332A1, “Therapeutic Agents - 551” (AstraZeneca AB, priority 2006, published 2009)
# Target: T1, human Fatty Acid Synthase (Homo sapiens, UniProt P49327)
# T1 construct: made in house
# Test: Human FAS enzyme assay (decrease in NADPH fluorescence)
# Format: biochemical
# Details: % inhibition at a concentration of 100 μmolar
# Outline: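 In-house human FAS was preincubated with compound and NADPH for 15 min at room temperature in 0.1 M Tris pH 7.5 with EDTA, glutathione and BSA. Malonyl CoA and acetyl CoA (500 μM and 150 μM in the added mix) were then added for 60 min. IC50 came from time-zero-subtracted NADPH fluorescence (340/460 nm).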
# T1 sequence (P49327 whole entry): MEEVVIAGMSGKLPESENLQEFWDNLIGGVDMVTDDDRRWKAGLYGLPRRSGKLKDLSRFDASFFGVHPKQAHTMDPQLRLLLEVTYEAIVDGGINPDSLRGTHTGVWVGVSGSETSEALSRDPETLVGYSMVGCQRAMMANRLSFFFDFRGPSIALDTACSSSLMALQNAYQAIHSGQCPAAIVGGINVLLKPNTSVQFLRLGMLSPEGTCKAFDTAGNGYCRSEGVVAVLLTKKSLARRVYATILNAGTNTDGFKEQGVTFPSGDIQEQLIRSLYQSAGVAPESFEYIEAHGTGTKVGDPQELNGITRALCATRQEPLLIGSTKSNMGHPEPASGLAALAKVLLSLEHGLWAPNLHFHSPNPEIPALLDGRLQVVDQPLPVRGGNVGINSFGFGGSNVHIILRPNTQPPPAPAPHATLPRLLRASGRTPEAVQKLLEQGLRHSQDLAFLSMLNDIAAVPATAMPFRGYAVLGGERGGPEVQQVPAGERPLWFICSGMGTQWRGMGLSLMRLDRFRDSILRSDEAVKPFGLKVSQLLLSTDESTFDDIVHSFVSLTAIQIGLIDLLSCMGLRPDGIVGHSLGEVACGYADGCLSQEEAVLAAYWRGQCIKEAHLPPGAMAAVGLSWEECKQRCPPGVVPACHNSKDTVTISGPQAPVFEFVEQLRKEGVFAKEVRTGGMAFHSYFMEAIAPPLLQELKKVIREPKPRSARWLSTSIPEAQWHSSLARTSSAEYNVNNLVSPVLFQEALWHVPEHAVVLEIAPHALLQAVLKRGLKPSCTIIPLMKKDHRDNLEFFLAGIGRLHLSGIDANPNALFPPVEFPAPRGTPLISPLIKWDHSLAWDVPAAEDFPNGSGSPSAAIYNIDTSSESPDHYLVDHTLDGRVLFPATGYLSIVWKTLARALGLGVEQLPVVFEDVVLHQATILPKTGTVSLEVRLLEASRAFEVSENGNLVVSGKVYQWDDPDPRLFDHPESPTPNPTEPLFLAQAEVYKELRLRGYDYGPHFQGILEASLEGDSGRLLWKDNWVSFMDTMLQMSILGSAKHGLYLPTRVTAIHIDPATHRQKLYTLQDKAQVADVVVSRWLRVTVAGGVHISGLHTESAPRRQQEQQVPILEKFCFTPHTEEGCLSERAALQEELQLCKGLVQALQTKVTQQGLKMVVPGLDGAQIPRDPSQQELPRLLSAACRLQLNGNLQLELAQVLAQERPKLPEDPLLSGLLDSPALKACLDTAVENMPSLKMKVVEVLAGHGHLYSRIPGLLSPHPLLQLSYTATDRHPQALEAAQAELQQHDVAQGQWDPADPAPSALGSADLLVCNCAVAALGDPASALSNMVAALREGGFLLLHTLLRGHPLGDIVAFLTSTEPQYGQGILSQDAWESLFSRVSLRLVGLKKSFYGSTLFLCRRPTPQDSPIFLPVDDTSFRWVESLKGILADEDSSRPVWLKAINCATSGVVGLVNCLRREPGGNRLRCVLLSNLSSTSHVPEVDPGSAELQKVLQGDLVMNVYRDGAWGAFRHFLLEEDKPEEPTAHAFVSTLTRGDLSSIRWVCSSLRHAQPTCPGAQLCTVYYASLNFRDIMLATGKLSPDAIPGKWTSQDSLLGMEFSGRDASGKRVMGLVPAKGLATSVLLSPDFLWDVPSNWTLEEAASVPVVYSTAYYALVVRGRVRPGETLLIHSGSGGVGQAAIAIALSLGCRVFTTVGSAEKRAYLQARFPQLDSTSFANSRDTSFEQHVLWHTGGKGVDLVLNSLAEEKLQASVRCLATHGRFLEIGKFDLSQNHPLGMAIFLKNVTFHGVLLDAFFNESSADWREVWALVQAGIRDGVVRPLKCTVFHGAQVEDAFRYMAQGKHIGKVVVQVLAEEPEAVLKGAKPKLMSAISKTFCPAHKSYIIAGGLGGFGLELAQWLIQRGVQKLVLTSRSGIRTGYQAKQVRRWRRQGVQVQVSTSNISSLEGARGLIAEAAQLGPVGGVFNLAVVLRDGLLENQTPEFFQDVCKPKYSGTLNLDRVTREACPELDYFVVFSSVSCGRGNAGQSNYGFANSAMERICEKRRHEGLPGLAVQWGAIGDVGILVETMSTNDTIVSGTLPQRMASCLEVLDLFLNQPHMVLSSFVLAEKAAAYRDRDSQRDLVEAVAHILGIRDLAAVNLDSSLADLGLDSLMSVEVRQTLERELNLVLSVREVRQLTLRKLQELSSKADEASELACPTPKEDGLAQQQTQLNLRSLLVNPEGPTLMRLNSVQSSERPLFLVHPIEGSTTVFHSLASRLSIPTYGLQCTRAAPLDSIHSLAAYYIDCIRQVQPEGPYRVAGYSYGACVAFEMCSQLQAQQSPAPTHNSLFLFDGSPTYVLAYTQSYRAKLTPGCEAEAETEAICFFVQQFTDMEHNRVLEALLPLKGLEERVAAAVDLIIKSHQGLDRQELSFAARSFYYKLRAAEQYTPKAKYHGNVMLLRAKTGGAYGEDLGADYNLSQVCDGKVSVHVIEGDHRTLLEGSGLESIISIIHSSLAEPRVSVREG
row,SMILES,inhibition at 100 µM
1,"Cc1ccc(C(=O)N2CCC(c3ccc(C#N)cc3)CC2)cc1NC(=O)NC1CCCNC1 (stereo not shown) [Example 286, 1-[5-[4-(4-cyanophenyl)piperidine-1-carbonyl]-2-methyl-phenyl]-3-(3-piperidyl)urea]",99.6%
2,"Cc1ccc(C(=O)N2CCC(c3ccc(C#N)cc3)CC2)cc1NC(=O)NC1CCC1 [Example 287, 1-[5-[4-(4-cyanophenyl)piperidine-1-carbonyl]-2-methyl-phenyl]-3-cyclobutyl-urea]",92.4%
3,"Cc1ccc(C(=O)N2CCC(c3ccc(C#N)cc3)CC2)cc1NC(=O)NCC1CC1 [Example 288, 1-[5-[4-(4-cyanophenyl)piperidine-1-carbonyl]-2-methyl-phenyl]-3-(cyclopropylmethyl)urea]",99.8%
4,"Cc1ccc(C(=O)N2CCC(c3ccc(C#N)cc3)CC2)cc1NC(=O)NCc1cc[nH]n1 [Example 289, 1-[5-[4-(4-cyanophenyl)piperidine-1-carbonyl]-2-methyl-phenyl]-3-(1H-pyrazol-3-ylmethyl)urea]",91.2%
5,"Cc1ccc(C(=O)N2CCC(c3ccc(C#N)cc3)CC2)cc1NC(=O)NCc1ccn(C)n1 [Example 290, 1-[5-[4-(4-cyanophenyl)piperidine-1-carbonyl]-2-methyl-phenyl]-3-[(1-methylpyrazol-3-yl)methyl]urea]",102%
6,"Cc1ccc(C(=O)N2CCC(c3ccc(C#N)cc3)CC2)cc1NC(=O)NCc1ncccn1 [Example 291, 1-[5-[4-(4-cyanophenyl)piperidine-1-carbonyl]-2-methyl-phenyl]-3-(pyrimidin-2-ylmethyl)urea]",89.6%
7,"Cc1cc(CNC(=O)Nc2cc(C(=O)N3CCC(c4ccc(C#N)cc4)CC3)ccc2C)[nH]n1 [Example 292, 1-[5-[4-(4-cyanophenyl)piperidine-1-carbonyl]-2-methyl-phenyl]-3-[(5-methyl-2H-pyrazol-3-yl)methyl]urea]",95.6%
8,"Cc1ccc(C(=O)N2CCC(c3ccc(C#N)cc3)CC2)cc1NC(=O)NCc1cnccn1 [Example 293, 1-[5-[4-(4-cyanophenyl)piperidine-1-carbonyl]-2-methyl-phenyl]-3-(pyrazin-2-ylmethyl)urea]",92.5%
9,"Cc1cc(C)c(C(=O)N2CCC(c3ccc(C#N)cc3)CC2)cc1NC(=O)NCCCS(C)(=O)=O [Example 294, 1-[5-[4-(4-cyanophenyl)piperidine-1-carbonyl]-2,4-dimethyl-phenyl]-3-(3-methylsulfonylpropyl)urea]",92.2%
10,"CCC(=O)N1CCCC(NC(=O)Nc2cc(C(=O)N3CCC(c4ccc(C#N)cc4)CC3)ccc2C)C1 (stereo not shown) [Example 295, 3-[5-[4-(4-cyanophenyl)piperidine-1-carbonyl]-2-methyl-phenyl]-1-(1-propanoyl-3-piperidyl)urea]",97.2%
11,"Cc1ccc(C(=O)N2CCC(c3ccc(C#N)cc3)CC2)cc1NC(=O)NC1CCCN(S(C)(=O)=O)C1 (stereo not shown) [Example 296, 1-[5-[4-(4-cyanophenyl)piperidine-1-carbonyl]-2-methyl-phenyl]-3-(1-methylsulfonyl-3-piperidyl)urea]",103%
12,"CCS(=O)(=O)N1CCCC(NC(=O)Nc2cc(C(=O)N3CCC(c4ccc(C#N)cc4)CC3)ccc2C)C1 (stereo not shown) [Example 297, 3-[5-[4-(4-cyanophenyl)piperidine-1-carbonyl]-2-methyl-phenyl]-1-(1-ethylsulfonyl-3-piperidyl)urea]",97.9%
13,"CCc1ccc(C(=O)N2CCC(c3ccc(C#N)cc3)CC2)cc1NC(=O)NC1COC1 [Example 298, 1-[5-[4-(4-cyanophenyl)piperidine-1-carbonyl]-2-ethyl-phenyl]-3-(oxetan-3-yl)urea]",95.8%
14,"Cc1ccc(C(=O)N2CCC(c3ccc(C#N)cc3)CC2)cc1NC(=O)NC1COC1 [Example 299, 1-[5-[4-(4-cyanophenyl)piperidine-1-carbonyl]-2-methyl-phenyl]-3-(oxetan-3-yl)urea]",95.1%
15,"Cc1ccc(C(=O)N2CCC(c3ccc(C#N)cc3)CC2)cc1NC(=O)NC1CNC1 [Example 300, 3-(azetidin-3-yl)-1-[5-[4-(4-cyanophenyl)piperidine-1-carbonyl]-2-methyl-phenyl]urea]",84.3%
16,"Cc1ccc(C(=O)N2CCC(c3ccc(C#N)cc3)CC2)cc1NC(=O)NC1CN(C(=O)C(C)C)C1 [Example 301, 1-[5-[4-(4-cyanophenyl)piperidine-1-carbonyl]-2-methyl-phenyl]-3-[1-(2-methylpropanoyl)azetidin-3-yl]urea]",96.6%
17,"Cc1ccc(C(=O)N2CCC(c3ccc(C#N)cc3)CC2)cc1NC(=O)NC1CN(S(C)(=O)=O)C1 [Example 302, 1-[5-[4-(4-cyanophenyl)piperidine-1-carbonyl]-2-methyl-phenyl]-3-(1-methylsulfonylazetidin-3-yl)urea]",93.9%
18,"Cc1ccc(C(=O)N2CCC(c3ccc(C#N)cc3)CC2)cc1NC(=O)NC1CN(S(=O)(=O)N(C)C)C1 [Example 303, 1-[5-[4-(4-cyanophenyl)piperidine-1-carbonyl]-2-methyl-phenyl]-3-[1-(dimethylsulfamoyl)azetidin-3-yl]urea]",93.5%
19,"Cc1ccc(C(=O)N2CCC(c3ccc(C#N)cc3)CC2)cc1NC(=O)N1CC(N)C1 [Example 306, 3-amino-N-[5-[4-(4-cyanophenyl)piperidine-1-carbonyl]-2-methyl-phenyl]azetidine-1-carboxamide]",84.7%
20,"CC(=O)N1CC(NC(=O)Nc2cc(C(=O)N3CCC(c4ccc(C#N)cc4)CC3)ccc2C)C1 [Example 310, 3-(1-acetylazetidin-3-yl)-1-[5-[4-(4-cyanophenyl)piperidine-1-carbonyl]-2-methyl-phenyl]urea]",94.5%
21,"CCS(=O)(=O)N1CC(NC(=O)Nc2cc(C(=O)N3CCC(c4ccc(C#N)cc4)CC3)ccc2C)C1 [Example 311, 3-[5-[4-(4-cyanophenyl)piperidine-1-carbonyl]-2-methyl-phenyl]-1-(1-ethylsulfonylazetidin-3-yl)urea]",105%
22,"CC(=O)NC1CN(C(=O)Nc2cc(C(=O)N3CCC(c4ccc(C#N)cc4)CC3)ccc2C)C1 [Example 312, 3-acetamido-N-[5-[4-(4-cyanophenyl)piperidine-1-carbonyl]-2-methyl-phenyl]azetidine-1-carboxamide]",88.8%
23,"Cc1ccc(C(=O)N2CCC(c3ccc(C#N)cc3)CC2)cc1NC(=O)N1CC(NS(C)(=O)=O)C1 [Example 313, N-[5-[4-(4-cyanophenyl)piperidine-1-carbonyl]-2-methyl-phenyl]-3-methanesulfonamido-azetidine-1-carboxamide]",90.5%
24,"Cc1ccc(C(=O)N2CCC(c3ccc(C#N)cc3)CC2)cc1NC(=O)N1CC(NS(=O)(=O)N(C)C)C1 [Example 314, N-[5-[4-(4-cyanophenyl)piperidine-1-carbonyl]-2-methyl-phenyl]-3-(dimethylsulfamoylamino)azetidine-1-carboxamide]",87.4%
25,"Cc1ccc(C(=O)N2CCC(c3ccc(C#N)cc3)CC2)cc1NC(=O)N[C@H]1CC[C@H](NC(=O)OC(C)(C)C)C1 [Example 316, tert-butyl N-[(1S,3S)-3-[[5-[4-(4-cyanophenyl)piperidine-1-carbonyl]-2-methyl-phenyl]carbamoylamino]cyclopentyl]carbamate]",99.6%
